Test results taken from patent publication US20140276107A1, “PHOTODYNAMIC DIAGNOSIS” (Photocure ASA, priority 2011, published 2014).

Columns and labels:
[1] = tested on: normal and Barrett's tissue of the esophagus; assay: Spectrofluorimetry (LIFS) of PpIX fluorescence intensity in the esophagus of patients suffering from Barrett's esophagus; type: in vivo, human; details: for porphyrin (PpIX) fluorescence in normal tissue compared to Barrett's tissue: ALA 20 mg/kg orally 4-5 hours before endoscopy (5 subjects), HAL 8 mM solution by local instillation 2 hours before endoscopy (3 subjects)
Experimental: Spectrofluorimetry (LIFS) measurements (fluorescence intensity of PpIX in the esophagus) were carried out on 8 patients suffering from Barrett's esophagus. The measurements were carried out after oral administration of 5-ALA (ALA) or local instillation of 5-ALA hexyl ester (HAL) and the fluorescence intensity of normal and Barrett's tissue was compared.
LIFS was carried out using the Karl Storz D-light system. Abnormal cells could be clearly delineated against normal tissue due to the porphyrin fluorescence resulting from an accumulation of the ALA or HAL in the abnormal tissue. For this purpose, blue light of a specific spectral composition was introduced into the body via an endoscopic light guide system. • Patient group 1: 5 subjects each received 20 mg/kg body weight ALA orally, 4-5 hours before endoscopy. • Patient group 2: 3 subjects each received a 8 mM solution of HAL in an aqueous buffer by local instillation (100 mg in 50 mL, i.e. 0.2%), 2 hours before endoscopy.

[2] = tested on: dysplastic tissue in Barrett's esophagus; details: cited from earlier work

SMILES	porphyrin (PpIX) fluorescence in normal tissue compared to Barrett's tissue ([1]; FIG. 1)	distinction of high-grade dysplastic from non-dysplastic epithelial tissue ([2]; Brand et al. 2002)	detection of high-grade intraepithelial neoplasia and adenocarcinoma ([2]; Stepinac et al. 2003)	detection of low-grade neoplastic tissue ([2]; Stepinac et al. 2003)	specificity for detection of dysplastic tissue ([2]; systemic application of 5-ALA at 20 mg/kg and 30 mg/kg, high rate of false positive fluorescence)	intensity of fluorescence in the normal epithelium, HAL versus ALA ([1]; FIG. 1, normal epithelium, HAL 8 mM local instillation vs ALA 20 mg/kg orally)	fluorescence intensity of PpIX in the Barrett and normal mucosa ([1]; FIG. 2, one of the patients receiving HAL)	intensity of fluorescence in the normal and Barrett epithelium, HAL compared to ALA ([1]; normal and Barrett epithelium, background fluorescence)
NCC(=O)CCC(=O)O [ALA, 5-aminolevulinic acid]	significantly higher in normal tissue compared to Barrett's tissue	can distinguish	effective	not accurate	poor	–	–	–
CCCCCCOC(=O)CCC(=O)CN [HAL, 5-ALA hexyl ester]	significantly higher in normal tissue compared to Barrett's tissue	–	–	–	–	lower	stronger intensity for the normal mucosa	lower intensity of fluorescence
